Key:
[1] = tested on: rat HCC cell line, CRL-1601; settings: 12.5 or 25 mg/kg/day s.c. for 4 weeks
Excerpt: The CXCR4 antagonists used was the short peptide dimer antagonist CTCE-9908 (SEQ ID NO.1). A rat orthotopic hepatocellular carcinoma (HCC) model was established by injection of a rat HCC cell line, CRL-1601, into the left lobe of the liver of Buffalo rats. Since the rat HCC cell line was generated from Buffalo rats, in vivo formed tumor in the Buffalo rats can mimic the clinical setting. […]
The first group (control) received sham operation followed by water for irrigation. […] The dimension of the primary tumour was measured along with liver function. The microvessel density, proliferation index of tumor cells, apoptotic state and morphology of tumour cells in primary tumour and metastases were analysed by immunohistochemistry. […] The number of metastatic tumour loci was analysed. Plasma SDF-1 was analyzed by ELISA. […]
This study examined a rat model of hepatocellular carcinoma (HCC) that mimics transarterial chemoembolization in the clinical setting. […] One week after the last CTCE-9908 treatment, the rats were sacrificed and assessments of the tumor as well as the circulating cells were made by luminescence and flow cytometry, respectively.

[2] = tested on: refractory neoplasms (various solid tumors); assay: open label, dose-finding trial (Accelerated Titration Design) in subjects with refractory neoplasms; assay type: in vivo, human
Description: According to the study design, the cohort was to be expanded in the case of moderate toxicity to include more subjects and additional dose increments (40%) until the maximum dose of 5 mg/kg or dose limiting toxicity was achieved.
Subjects were dosed daily for 4 consecutive weeks (not including weekends and holidays) and dose limiting toxicity was assessed after subjects have completed their treatment.
Toxicity reported during the study was graded according to the National Cancer Institute (NCI) CTCAE (Common Terminology Criteria for Adverse Events) v3.0. A Dose Limiting Toxicity (DLT) was defined as follows: • a) Any grade ≧3 reversible non-haematologic treatment-related toxicity OR • b) Any irreversible grade ≧2 non-haematologic treatment-related toxicity OR • c) Any grade ≧4 haematologic treatment-related toxicity lasting longer than 10 days during the 4 weeks of treatment
For the purpose of this study, Moderate Toxicity has been defined according to NCI CTCAE v3.0. Adverse events were treated when they occurred. No investigational or commercial agents or therapies were administered with the intent to treat the subject's malignancy during the period that the subjects were in the study.

With KGVSLSYR-X-RYSLSVGK [CTCE-9908] the tumor regression ([1]; CTCE-9908 in combination with hepatic artery ligation (HAL), luminescence and necropsy) was “up to 80%”, the tolerability ([1]; rats) was “well tolerated by all rats” and the “number of Moderate Toxicities observed during the study” value ([2]; NCI CTCAE v3.0, whole study) was “eight”. For the same substance, the “overall stable disease, number of subjects” value ([2]; at the end of their last treatment cycle, 1, 2.5 and 5 mg/kg/day doses) was “five”, the “Dose Limiting Toxicity (DLT)” value ([2]; daily dosing for 4 consecutive weeks, up to 5 mg/kg, NCI CTCAE v3.0) was “no DLT was reported” and the tumor markers ([2]; one ovarian cancer subject and one colorectal cancer subject) was “reduction in tumor markers”. For the same substance, the “duration of stable disease” value ([2]; one small bowel subject) was “up to seven” and the “Maximum Tolerated Dose (MTD)” value ([2]; subjects with refractory neoplasms, up to 5 mg/kg) was “not established”.

Reference: US20170143787A1, “CHEMOKINE RECEPTOR ANTAGONIST AND ITS COMBINATIONAL THERAPY” (Pertinax Therapeutics Inc., priority 2014, published 2017)
